“Also recorded” adds a separate entry of the source.
Tests used:
[1] = target: fibroblast growth factor-1 (FGF-1) (Homo sapiens, UniProt P05230); experiment: Co-crystallization with FGF-1 (crystal diffraction); type: binding; conditions: electron density contoured at 1σ, site close to that of 2,5-dihydroxybenzenesulfonic acid
Method: Based on the crystal diffraction of the FGF-1:2-acetoxy-5-hydroxybenzene sulfonic acid, FGF-1:5-acetoxy-2-hydroxybenzene sulfonic acid and FGF-1:2,5-diacetoxybenzene sulfonic acid complexes, the structures of the complexes were calculated and represented. FIGS. 20, 21 and 22, which show the surface of the dyed protein according to its electrostatic potential (light grey: negative charge; dark grey: positive charge; white: lack of charge), show the manner in which 2-acetoxy-5-hydroxybenzene sulfonic acid, 5-acetoxy-2-hydroxybenzene sulfonic acid and 2,5-diacetoxybenzene sulfonic acid interact, respectively, with FGF-1.

[2] = test system: rat C6 glioma cells; experiment: Proliferation of rat glioma C6 cells (crystal violet); type: cell-based; conditions: 500 μM, 48 h, crystal violet absorbance at 595 nm
Method: FIG. 19. […] 5A-2HBS and 2A-5HBS were administered or not (control) after seeding C6 cells in 24 well plates (10^4 per well) until they were fixed 48 hours later. Data are expressed as the mean ±SEM of the percentage of absorbance at 595 nm obtained in control cultures, which is proportional to the number of cells stained with crystal violet. Data were obtained from 3 cultures for each treatment and 6 control cultures.
The cell line used was the C6 cell line and the experiment was carried out as described in examples 2 and 3. Once adhered, the cells were treated or not (controls) with (5A-2HBS) (500 μM) or (2A-5HBS) (500 μM) and they were allowed to proliferate for 48 h. After this time the glioma cell proliferation was evaluated by means of staining the fixed cells with crystal violet. The number of cells is proportional to the amount of retained dye, which was determined spectrophotometrically by measuring the absorbance at 595 nm once the dye was extracted from the cells.

[3] = test system: fibroblast growth factor-1 (FGF-1) induced mitogenesis in Balb/c 3T3 fibroblasts; experiment: Inhibition of FGF-1 induced mitogenesis in quiescent Balb/c 3T3 fibroblast cultures; type: cell-based; conditions: quiescent cultures of Balb/c 3T3 fibroblasts
Method: The evaluated compounds were used in the form of potassium salt, except in the first case in which calcium salt was used. The experiments were carried out as described in Fernández-Tornero C et al. J Biol Chem, 2003.

[4] = test system: OVA-sensitized mice; experiment: Experimentally induced (OVA) asthma in mice: methacholine bronchoconstriction and BAL cell count; type: in vivo, Balb/c mice; conditions: for methacholine induced bronchoconstriction (Penh): methacholine 5 and 20 mg/mL
Method: 6-9 week old Balb/c mice were used. The ovoalbumin (OVA)/aluminum complex was obtained after dissolving OVA (500 μg/mL) in PBS, and mixing it with an equal volume of 10% aluminum potassium sulfate at pH 6.5 for 1 hour. After centrifuging the pellet (750×g for 5 minutes) the OVA/aluminum pellet was resuspended in distilled water. On day 0, the mice were intraperitoneally injected with 100 μg of OVA/aluminum. Eight days later, the mice were anesthetized and exposed to 250 μg of OVA. Later, they were administered 125 μg of OVA on days 15, 18 and 21. Each […] received sublingual administration of OVA.
The following treatments were administered to the animals: (i.p.) vehicle from day 2, potassium 2,5-diacetoxybencene sulfonate (DABS; 100 mg/kg/day, i.p.) from day 2, DABS (100 mg/kg/day, i.p.) from day 8 and Combivent (20 μg/200 μg in aerosol) on days 20, 21 and 22, the latter as a reference treatment.
In order to evaluate the pulmonary function, the response to methacholine in conscious mice was determined, 24 hours after the last exposure to OVA. The mice were exposed to increasing methacholine concentrations (5 and 20 mg/mL) in the form of aerosol using an ultrasonic nebulizer during 2 minutes. The degree of bronchoconstriction was expressed as the enhanced […] (Penh) which correlates to the mouse air resistance, impedance and pressure within the pleura. The Penh was calculated using the formula Penh=[(Te/Rt−1)×(PEF/PIF)], where Te is expiratory time, Rt is relaxation time, PEF is peak expiratory flow and PIF is peak inspiratory flow×0.67 coefficient.
After measuring airway hyperreactivity, the mice were sacrificed and bronchoalveolar lavage (BAL) of the right lung was collected. The total number of cells in the BAL fluid was determined.

[5] = test system: intestinal inflammatory disease (IID) induced by 3% dextran sulfate sodium; experiment: Intestinal inflammatory disease induced by dextran sulfate sodium (DSS) in the mouse; type: in vivo, mice of strain C57BL/6J-664; conditions: for disease clinical score (0 to 6 scale): two DSS cycles
Excerpt: The induction of the intestinal inflammatory disease described below is a representative model for the evaluation of therapeutic strategies to treat Crohn's disease and ulcerative colitis. 7-8 week old female mice of strain C57BL/6J-664 were used. The intestinal inflammatory disease (IID) was induced by feeding the mice with 3% dextran sulfate sodium (DSS; MW 40,000) dissolved in drinking water in 2 cycles. Each cycle consisted of 7 days with 3% DSS in the drinking water separated by 7 days with regular water. A daily clinical evaluation of the animals was performed in which the body weight, the consistency of the faeces and the presence of blood in the faeces were determined. Thus, the validated score of the clinical activity of the disease was evaluated with a 0 to 6 scale, considering the following parameters: consistency of the faeces, presence or absence of fecal blood and loss of weight.
At the end of the first cycle of exposure to DSS, the mice were divided into the following treatment groups: a first group was administered intraperitoneal (i.p) injections of vehicle (0.9% NaCl). Another group received intramuscular injections of Solu-Medrol, a standard IID treatment, at a dose of 10 mg/kg/day. A third group was administered i.p. injections of potassium 2,5-diacetroxybenzene sulfonate (DABS, 100 mg/kg/day). The last group was treated orally with 125 mg/kg day of DABS.

[6] = test system: Leishmania major; experiment: Experimental infection with Leishmania major in mouse paw pad (lesion size); type: in vivo, Leishmania major in BALB/c female mice
Excerpt: This model is based in the massive inoculation of Leishmania promatigotes in the mouse paw pad. Under these conditions, the parasite induces a progressive inflammation correlated with the multiplication of parasites at the site of inoculation. BALB/c strain female mice that developed severe and uncontrolled injuries were used (Foote S J, Handman E. Brief Funct Genomic Proteomic, 2005). This model has been used in pharmacology to monitor the therapeutic capacity of new leishmanicide compounds and the preventive capacity of potential vaccines against leishmaniasis ((Nelson K G et al. Antimicrob Agents Chemother. 2006).
The animals were inoculated with 5×10^6 of L. major promastigotes (strain Hervás) in 50 μL of PBS into the plantar pad of the right back paw. As negative control of the infection, a group of mice inoculated with 50 μL of PBS was used. The sizes of the lesions were measured every 7 days until the animals were sacrificed (week 9) using a Vernier caliper. The thickness of the right back paw (infected) and the left back paw (uninfected) of all the animals was measured at the base of the fifth toe. The progression of the inflammation is represented as the difference in thickness between the infected and the non-infected paws. […]

Sequence of fibroblast growth factor-1 (FGF-1) (P05230 whole entry, species assumed): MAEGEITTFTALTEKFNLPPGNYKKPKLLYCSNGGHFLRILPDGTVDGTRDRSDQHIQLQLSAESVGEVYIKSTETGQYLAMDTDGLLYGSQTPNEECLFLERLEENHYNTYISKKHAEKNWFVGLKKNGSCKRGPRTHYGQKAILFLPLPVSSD

With `CC(=O)Oc1ccc(OC(C)=O)c(S(=O)(=O)O)c1` [2,5-diacetoxybenzenesulfonic acid] the “state of the compound when bound to FGF-1 (co-crystal electron density)” value (shortened to “state of the compound when bound”) [1] was “conserves the acetoxyl groups in positions 2 and 5 when it binds to the protein”.

`CC(=O)Oc1ccc(O)cc1S(=O)(=O)O` [2-acetoxy-5-hydroxybenzenesulfonic acid] was tested, and the “state of the compound when bound” value [1] was “conserves the acetoxyl group in position 2 when it binds to the protein”.

For `CC(=O)Oc1ccc(O)c(S(=O)(=O)O)c1` [5-acetoxy-2-hydroxybenzenesulfonic acid], the “state of the compound when bound” value [1] was “conserves the acetoxyl group in position 5 when it binds to the protein”.

For `CC(=O)Oc1ccc(O)c(S(=O)(=O)[O-])c1.[K+]` [5A-2HBS, potassium 5-acetoxy-2-hydroxybenzene sulfonate], the “rat glioma cell proliferation” value [2] was “inhibition of rat glioma cell proliferation” and the “inhibition of FGF-1 induced mitogenesis” value [3] was “Inhibition of FGF-1 induced mitogenesis”.

`CC(=O)Oc1ccc(OC(C)=O)c(S(=O)(=O)[O-])c1.[K+]` [DABS, potassium 2,5-diacetoxybenzene sulfonate] was tested, and the “methacholine induced bronchoconstriction (Penh)” value ([4]; 100 mg/kg/day i.p. from day 2) was “completely prevented”, the “methacholine induced bronchoconstriction (Penh)” value ([4]; 100 mg/kg/day i.p. from day 8) was “completely prevented” and the “presence of cells in bronchoalveolar lavage (BAL)” value ([4]; 100 mg/kg/day i.p., right lung BAL, vs vehicle) was “significantly reduced”. For the same compound, the “increase of the Penh after exposure to methacholine vs saline” value ([4]; mouse, in vivo) was “do not show a significant increase of the Penh”, the “reduction of BAL cells compared with Combivent” value ([4]; mouse, in vivo) was “even more than the treatment with Combivent” and the “disease clinical score (0 to 6 scale)” value ([5]; 100 mg/kg/day i.p.) was “reduced”. The “disease clinical score (0 to 6 scale)” value ([5]; 125 mg/kg/day orally) was “reduced”, the “loss of body weight produced by DSS” value ([5]; DABS 100 mg/kg/day i.p. or 125 mg/kg/day p.o., two 7-day DSS cycles, vs vehicle) was “reduced; also recorded: significant effect on the body weight” and the “efficacy compared with standard treatment Solu-Medrol (body weight and clinical score)” value ([5]; DABS i.p. or p.o. vs Solu-Medrol 10 mg/kg/day i.m.) was “not lower (in some points it is higher)”. For the same compound, the “inhibition of FGF-1 induced mitogenesis” value [3] was “Inhibition of FGF-1 induced mitogenesis”, the “size of the lesion (paw thickness difference)” value ([6]; 200 mg/kg daily i.p. from day 0 to week 9, effect from the third week post-infection) was “statistically significant reduction in the size of the lesion” and the “size of the lesion (paw thickness difference)” value ([6]; 200 mg/kg/day i.p. from the third week after inoculation, effect from the eighth week) was “significantly smaller”.

In the case of `C[C@H]1C[C@@H]2[C@H]([C@@H](O)C[C@@]3(C)[C@H]2CC[C@]3(O)C(=O)COC(=O)CCC(=O)O)[C@@]2(C)C=CC(=O)C=C12` [Solu-Medrol, reference compound], the “effect on body weight” value ([5]; Solu-Medrol 10 mg/kg/day i.m., two 7-day DSS cycles, vs vehicle) is reported as “significant effect on the body weight”.

“calcium 2-acetoxy-5-hydroxybenzenesulfonate [2A-5HBS]” was tested, and the “inhibition of FGF-1 induced mitogenesis” value [3] was “Inhibition of FGF-1 induced mitogenesis”.

Source: patent US20080114063A1, “Use of 2,5-Dihydroxybenzene Derivatives for the Treatment of Tissue Reactive Diseases” (Action Medicines, priority 2006, published 2008)
